US7678831B2, “Butanoic acid derivatives, processes for the preparation thereof, pharmaceutical compositions comprising them, and therapeutic applications thereof” (Merck Patent GmbH, priority 2004, dated 2010)
Marks after values point to notes of the source that are not given here.

Assays:
[1] = biological target: T1, chimeric protein PPARα-Gal4 (Homo sapiens, UniProt Q07869); test: PPAR activation, Gal4 chimera luciferase reporter gene in co-transfected CV-1 cells; assay type: cell-based; settings: 50 μM, 18 hours contact, CV-1 cells (monkey kidney cells)
T1 construct: Gal4 (fusion partner); expressed in transfected cells; host or cells: CV-1 cells (monkey kidney cells)
T1 sequence (Q07869 239-466 limits assumed): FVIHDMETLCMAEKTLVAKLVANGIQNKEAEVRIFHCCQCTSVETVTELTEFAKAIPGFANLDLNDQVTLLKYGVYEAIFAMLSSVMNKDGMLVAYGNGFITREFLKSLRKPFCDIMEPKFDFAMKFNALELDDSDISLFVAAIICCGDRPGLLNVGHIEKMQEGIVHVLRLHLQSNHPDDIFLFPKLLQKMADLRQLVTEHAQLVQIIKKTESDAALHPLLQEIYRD
Experimental: (§1) The measurement of the PPAR activation was performed according to a technique described by Lehmann et al. (J. Biol. Chem., 270, (1995), 12953-12956).
(§2) CV-1 cells (monkey kidney cells) are co-transfected with an expression vector for the chimeric proteins PPARα-Gal4 or PPARγ-Gal4 and with a “reporter” plasmid that allows the expression of the luciferase gene placed under the control of a promoter comprising Gal4 response elements.
(§3) The cells are plated into 96-well microplates and co-transfected using a commercial reagent with the reporter plasmid (pG5-tk-pGL3) and the expression vector for the chimeric protein (PPARα-Gal4 or PPARγ-Gal4). After incubating for 4 hours, whole culture medium (comprising 10% foetal calf serum) is added to the wells. After 24 hours, the medium is removed and replaced with whole medium comprising the test products (50 μM final). The products are left in contact with the cells for 18 hours. The cells are then lysed and the luciferase activity is measured using a luminometer. A PPAR activation factor can then be calculated by means of activation of the expression of the reporter gene induced by the product (relative to the control cells that have not received any product).

[2] = biological target: T2, chimeric protein PPARγ-Gal4 (Homo sapiens, UniProt P37231); test: as above; assay type: cell-based; settings: 50 μM, 18 hours contact, CV-1 cells (monkey kidney cells)
T2 construct: Gal4 (fusion partner); expressed in transfected cells; host or cells: CV-1 cells (monkey kidney cells)
T2 sequence (P37231 238-503 limits assumed): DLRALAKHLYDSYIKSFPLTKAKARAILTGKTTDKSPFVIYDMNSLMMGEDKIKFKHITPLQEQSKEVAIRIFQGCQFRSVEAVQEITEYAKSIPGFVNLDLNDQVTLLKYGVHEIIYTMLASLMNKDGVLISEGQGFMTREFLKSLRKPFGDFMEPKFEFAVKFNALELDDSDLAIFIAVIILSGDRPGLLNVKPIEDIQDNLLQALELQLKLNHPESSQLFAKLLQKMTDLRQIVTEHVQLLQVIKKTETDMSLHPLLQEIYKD
Experimental: as §1, §2, §3

[3] = tested on: Gal4 alone; test: Control reporter test without the PPAR ligand binding domain (vector expressing Gal4 alone); assay type: cell-based; settings: CV-1 cells
Experimental: CV-1 cells (monkey kidney cells) are co-transfected with an expression vector for the chimeric proteins PPARα-Gal4 or PPARγ-Gal4 and with a “reporter” plasmid that allows the expression of the luciferase gene placed under the control of a promoter comprising Gal4 response elements. The cells are plated into 96-well microplates and co-transfected using a commercial reagent with the reporter plasmid (pG5-tk-pGL3) and the expression vector for the chimeric protein (PPARα-Gal4 or PPARγ-Gal4). After incubating for 4 hours, whole culture medium (comprising 10% foetal calf serum) is added to the wells. After 24 hours, the medium is removed and replaced with whole medium comprising the test products (50 μM final). The products are left in contact with the cells for 18 hours. The cells are then lysed and the luciferase activity is measured using a luminometer. A PPAR activation factor can then be calculated by means of activation of the expression of the reporter gene induced by the product (relative to the control cells that have not received any product). […] In the absence of the binding domain for the PPAR α or γ ligand (vector expressing Gal4 alone), the luciferase activity measured in the presence of this product is zero.

[4] = tested on: db/db mice; test: Antidiabetic and hypolipidaemiant activity, oral, in db/db mice; assay type: in vivo; settings: 20 mg/kg/day orally for 15 days
Experimental: The antidiabetic and hypolipidaemiant activity of the compounds according to the invention was determined orally on db/db mice.
15-week-old db/db mice are treated orally for 15 days with the compound of Example 18 (20 mg/kg/day). Each group studied comprises seven animals. After treatment for 15 days, retro-orbital samples are taken under mild anaesthesia and after fasting for four hours.
The following parameters were measured:
Assay of the glycaemia (glucose oxidase) and of the lipid parameters on the sera at D15 (COBAS): triglycerides, total cholesterol (CHOL), HDL cholesterol (HDL-C) and free fatty acids (FFA) (BioMérieux and Waco Chemicals assay kit).
The measurements reported represent mean values±standard error.

[5] = serum at D15, fasting four hours, mean ± standard error

| Compound | melting point [°C] | also measured |
| --- | --- | --- |
| O=C(c1ccc(Cl)cc1)c1ccc(O[C@@H](CCc2ccccc2)C(=O)O)cc1 [Example 6] | 148 |  |
| O=C(O)[C@H](CCc1ccccc1)Oc1ccc(-c2ccsc2)cc1 [Example 8] | 176 to 177 |  |
| O=C(O)[C@H](CCc1ccccc1)Oc1ccc(-c2cccnc2)cc1 [Example 7] | 140 |  |
| O=C(O)[C@H](CCc1ccccc1)Oc1ccc(-c2ccc(Cl)s2)cc1 [Example 18, (2S)-2-[4-(5-chlorothien-2-yl)phenoxy]-4-phenylbutanoic acid] |  | PPAR activation factor (reporter gene expression relative to control cells) [1]: 16; PPAR activation factor (reporter gene expression relative to control cells) [2]: 41; luciferase activity in the absence of the binding domain for the PPAR α or γ ligand [3]: zero; CHOL, % var. (percentage of variation versus control) ([4]; D15): +25 ** %; FFA, % var. (percentage of variation versus control) ([4]; D15): −40 ** %; Glycaemia, % var. (percentage of variation versus control) ([4]; D15): −53 ** %; HDL-C, % var. (percentage of variation versus control) ([4]; D15): +10 * %; Triglycerides, % var. (percentage of variation versus control) ([4]; D15): −41 ** %; CHOL (total cholesterol) [4, 5]: 4.57 ± 0.51 mM; FFA (free fatty acids) [4, 5]: 0.42 ± 0.06 mM; Glycaemia [4, 5]: 12.65 ± 7.0 Mm; HDL-C [4, 5]: 3.53 ± 0.24 mM; Triglycerides [4, 5]: 0.77 ± 0.16 mM |
| Cc1nc(-c2ccc(O[C@@H](CCc3ccccc3)C(=O)O)cc2)cs1 [Example 26] | 150 to 152 |  |
| O=C(O)[C@H](CCc1ccccc1)Oc1ccc(-c2cccs2)cc1 [Example 9] | 151 to 153 |  |

Further lines, with some results ahead:

| melting point [°C] | Compound | also measured |
| --- | --- | --- |
| 136 | O=C(O)C(CCc1ccccc1)Oc1ccc2oc3ccccc3c2c1 (stereo not shown) [Example 152] |  |
| 102 to 104 | O=C(O)C(CCc1ccco1)Oc1ccc(Br)cc1 (stereo not shown) [Example 227] |  |
| 198 | O=C(O)[C@H](CCc1ccccc1)Oc1ccc(-c2cc3ccccc3o2)cc1 [Example 144] |  |
| 124 | O=C(O)[C@H](CCc1ccccc1)Oc1cccc(OCc2ccc3ccccc3n2)c1 [Example 143] |  |
| 116 to 118 | O=C(O)C(CCc1cccs1)Oc1ccc(C(F)(F)F)cc1 (stereo not shown) [Example 229] |  |
| 99 to 99.5 | O=C(O)C(CCc1ccco1)Oc1ccc(C(F)(F)F)cc1 (stereo not shown) [Example 228] |  |
| 188 to 190 | O=C(O)C(CCc1ccc(F)cc1)Oc1ccc(-c2cc3ccccc3s2)cc1 (stereo not shown) [Example 146] |  |
| 198 to 199 | COc1ccc(CCC(Oc2ccc(-c3cc4ccccc4s3)cc2)C(=O)O)cc1 (stereo not shown) [Example 142] |  |
| 165 | Cc1cc(OC(CCc2ccccc2)C(=O)O)cc(=O)o1 (stereo not shown) [Example 207] |  |
| 109 to 110 | O=C(O)C(CCc1cccc(Cl)c1)Oc1ccc(-c2cc3ccccc3s2)cc1 (stereo not shown) [Example 141] |  |
